Legend:
Hsp90 = experiment: Western blot of Hsp90 protein in C4-2 cells; settings: 1 μM to 10 μM, 24 h, relative to GAPDH, FIG. 4B
Protocol: (§3) Cells were then harvested for western blot analysis using antibody to AR (4A), HSP90 (4B), Acetyl-Lysine (4C) or GAPDH (loading control). ImageJ software was used to determine the intensities of the bands relative to the vehicle control for each protein. The values were then divided by the values for GAPDH within the same samples.
(§4) Western Blot Analysis. Cells were washed once with phosphate buffered saline (PBS) and then lysed with RIPA buffer (150 mM NaCl, 1% Nonidet P-40, 0.5% sodium deoxycholate, 0.1% SDS, 50 mM Tris of pH 8.0) containing a protease inhibitor cocktail (Pierce, Thermo Fisher Scientific). The cell lysates were then incubated on ice for 40 minutes. Total protein concentrations were estimated using the Bradford Assay (Bio-Rad). Protein samples (10-40 ug) were heated at 95° C. for 5 minutes and resolved by electrophoresis on 8% polyacrylamide-SDS gels and electrophoretically transferred to PVDF membranes (Millipore, Billerica, Mass.). The membranes were then probed overnight at 4° C. with the appropriate primary antibody followed by the appropriate horseradish peroxidase-conjugated secondary antibody.

[1] = system: 55 KDa polypeptide (putative Hsp90 fragment); experiment: Western blot of acetylated lysine in C4-2 cells; settings: 24 h, acetylated lysine antibody, FIG. 4C
Protocol: as §3, §4

[2] = system: TMPRSS2 mRNA (AR target gene) in C4-2 cells; experiment: Inhibition of R1881 activation of TMPRSS2 mRNA in C4-2 cells; assay type: cell-based; settings: hormone depleted 96 h, R1881 1 nM, compound 1-10 μM, 48 h, FIG. 3B
Protocol: (§1) Cell Culture and Reagents. LNCaP and 22Rv1 cell lines were from American Type Culture Collection (Manassas, Va.). C4-2 cells were kindly provided by Dr. Edwin Sanchez (University of Toledo). […] R1881 was kindly provided by Dr. Stephan Patrick (Karmanos Cancer Institute). All experiments were conducted using phenol-red free growth media.
(§2) RNA isolation, Reverse Transcription, and Real Time PCR. Total RNA was isolated from cells using the RNeasy Mini Kit (Qiagen). Reverse transcription PCR was then performed using 500 ng of total RNA with random primers and using the high-capacity complementary DNA Archive kit (Applied Biosystems). The complementary DNA from this reaction was measured using quantitative real time PCR using the StepONE Plus Real Time PCR system (Life Technologies Corporation, Carlsbad, Calif.). All reactions were performed in triplicate and normalized to glyceraldehyde-3-phosphate-dehydrogenase values in the same samples.

C4-2 cells = experiment: MTT cell viability assay, C4-2 cells; assay type: cell-based; settings: for EC50: C4-2, 72 h, 0.1 μM-10 μM, read-out: EC50, inhibition of C4-2 cell growth; for cell death (viable cells below the number on Day 0): C4-2 cells, 5 μM, MTT Day 3 relative to Day 0, FIG. 6C
Protocol: (6A) C4-2 cells were seeded in 96-well plates and 24 h later, they were treated with the indicated compounds (0.1 μM-10 μM) or with vehicle (DMSO). Cell viability was measured by the MTT assay on Days 0 and 3 of treatment. EC50 values were calculated from nonlinear regression plots using GraphPad Prism5 software. […] Cell viability was measured by the MTT assay on Days 0 and 3 of treatment. […] Cell viability was measured by the MTT assay on Days 0 and 3 of treatment. […] (6D) 22Rv1 cells were infected with AR shRNA lentivirus, or control shRNA. 72 h after infection, cells were plated and viable cells were measured by the MTT assay on the indicated days (6D, bottom). Cells were also harvested for western blot analysis and probed with antibody to AR, which was also reactive with the AR splice variant AR-V7 (6D, top). (6E) 22Rv1 cells were seeded in 96-well plates and 24 h later, they were treated with the indicated compounds (0.1 μM-10 μM) or with vehicle (DMSO). Cell viability was measured by the MTT assay on Days 0 and 3 of treatment. EC50 values were calculated from nonlinear regression plots using GraphPad Prism5 software.
Cell Proliferation Assay. Cells were trypsinized and 6000 cells/well were seeded in 96-well plates coated with poly-D-lysine. The cells were seeded in phenol red-free medium supplemented with 10% FBS, 100 units/ml penicillin, 100 μg/ml streptomycin, 2 mM L-glutamine mixture and sodium pyruvate (1 mM) for C4-2 cells and phenol red-free medium supplemented with 10% FBS, 100 units/ml penicillin, 100 μg/ml streptomycin and 2 mM L-glutamine mixture for 22Rv1 cells. The cells were grown at 37° C. in 5% CO2. Twenty four hours after seeding in the 96-well plates, the cells were treated with indicated compound or DMSO (vehicle). The culture medium was not changed during the time course of the assay. On Day zero and on Day 3, cell viability was determined using the MTT assay. MTT (10 μL, 5 mg/mL) was added to each well and incubated for 2 h at 37° C. The formazan crystal sediments were dissolved in 100 μL of DMSO, and the absorbance at 570 nm was measured using the BioTek Synergy 2 Microplate Reader (BioTek, Winooski, Vt.). […] IC50 values were calculated from nonlinear […] plots using GraphPad Prism5 software.

[3] = system: HDACs from Hela cell nuclear extract; assay type: biochemical; settings: for IC50: cell-free, FIG. 2A, read-out: IC50, inhibition of HDACs enriched in the Hela nuclear extract
Protocol: FIGS. 2A-2F show measurement of intrinsic and in situ HDACi activities. […] IC50 values were calculated from nonlinear regression plots using GraphPad Prism5 software. […] Recombinant HDAC6 was incubated with each drug at the indicated concentrations. IC50 values were calculated from nonlinear regression plots using GraphPad Prism5 software.
HDAC activity assay. In vitro HDAC inhibition was measured by using the HDAC fluorimetric assay/drug discovery Kit (Enzo Life Sciences, BML-AK500) and the HDAC6 fluorometric drug discovery kit (Enzo Life Sciences, BML-AK516) following the manufacturer's protocols and instructions. IC50 values were calculated from nonlinear […] plots using GraphPad Prism5 software.
HDAC1 and HDAC2 are enriched in nuclear extracts whereas HDAC6 is a cytosolic enzyme that is the principal modulator of the acetylation status of Hsp90. […] Again, TSA served as the positive control in FIG. 2D.

p21 mRNA in LNCaP cells = experiment: p21 mRNA induction in LNCaP cells; settings: 10 μM, 48 h, FIG. 5A
p21 mRNA in C4-2 cells = experiment: p21 mRNA induction in C4-2 cells; settings: 48 h, FIG. 5B
[4] = system: KLK3 mRNA (AR target gene) in C4-2 cells; experiment: Inhibition of R1881 activation of KLK3 mRNA in C4-2 cells; assay type: cell-based; settings: hormone depleted 96 h, R1881 1 nM, compound 1-10 μM, 48 h, FIG. 3A
Protocol: as §1, §2

SMILES | Hsp90 protein level (degradation) (Hsp90) | hyper-acetylation of a 55 KDa polypeptide [1] | inhibition of activation of TMPRSS2 by R1881 [2] | effect on C4-2 cell growth (C4-2 cells; MTT, Day 3, up to 10 μM, FIG. 6A) | inhibition of nuclear HDAC activity ([3]; HeLa cell nuclear extract, tested at 10 μM and 25 μM, FIG. 2B) | p21 mRNA expression (p21 mRNA in LNCaP cells) | p21 mRNA expression (p21 mRNA in C4-2 cells) | inhibition of activation of KLK3 by R1881 [4] | EC50 (C4-2 cells; MTT, Day 3, FIG. 6A) [nM] | cell death (viable cells below the number on Day 0) (C4-2 cells) | IC50 [3] [nM]
CNC(=O)c1ccc(N2C(=S)N(c3ccc(C#N)c(C(F)(F)F)c3)C(=O)C2(C)C)cc1F [Enz, Enzalutamide, reference compound] | had no effect | not | progressive inhibition at higher doses | could not appreciably affect growth even at a concentration of 10 μM | lacked any HDACi activity | had no effect | had no effect | progressive inhibition at higher doses |  |  | 
CC1(C)C(=O)N(c2ccc(C#N)c(C(F)(F)F)c2)C(=S)N1c1ccc(C(=O)NCCCCCCC(=O)NO)c(F)c1 [Compound 2-75, 4-(3-(4-cyano-3-(trifluoromethyl)phenyl)-5,5-dimethyl-4-oxo-2-thioxoimidazolidin-1-yl)-2-fluoro-N-(7-(hydroxyamino)-7-oxoheptyl)benzamide] | more marked reduction in Hsp90 | hyper-acetylation of a 55 KDa polypeptide | better inhibitors of gene activation by androgen compared with either Enz or SAHA |  |  | induced p21 to a greater extent than SAHA | induced p21 to a greater extent than SAHA | better inhibitors of gene activation by androgen compared with either Enz or SAHA | 1620 | caused cell death | 1080
CC1(C)C(=O)N(c2ccc(C#N)c(C(F)(F)F)c2)C(=S)N1c1ccc(/C=C/C(=O)NO)c(F)c1 [Compound 1005, (E)-3-(4-(3-(4-cyano-3-(trifluoromethyl)phenyl)-5,5-dimethyl-4-oxo-2-thioxoimidazolidin-1-yl)-2-fluorophenyl)-N-hydroxyacrylamide] | more marked reduction in Hsp90 | hyper-acetylation of a 55 KDa polypeptide | better inhibitors of gene activation by androgen compared with either Enz or SAHA |  |  | induced p21 to a greater extent than SAHA | induced p21 to a greater extent than SAHA | better inhibitors of gene activation by androgen compared with either Enz or SAHA | 3290 | caused cell death | 2410

Reference: patent publication US9963433B2, “Anticancer drugs including the chemical structures of an androgen receptor ligand and a histone deacetylase inhibitor” (Wayne State University, priority 2016, dated 2018)
